Each molecule was assayed against T1, Dual specificity protein phosphatase 1 (Homo sapiens, UniProt P28562) (assay: MKP-1 phosphatase inhibition under DTT, dose response, biochemical, DTT added, probe assessment (AID 558)).
T1 sequence (P28562 whole entry): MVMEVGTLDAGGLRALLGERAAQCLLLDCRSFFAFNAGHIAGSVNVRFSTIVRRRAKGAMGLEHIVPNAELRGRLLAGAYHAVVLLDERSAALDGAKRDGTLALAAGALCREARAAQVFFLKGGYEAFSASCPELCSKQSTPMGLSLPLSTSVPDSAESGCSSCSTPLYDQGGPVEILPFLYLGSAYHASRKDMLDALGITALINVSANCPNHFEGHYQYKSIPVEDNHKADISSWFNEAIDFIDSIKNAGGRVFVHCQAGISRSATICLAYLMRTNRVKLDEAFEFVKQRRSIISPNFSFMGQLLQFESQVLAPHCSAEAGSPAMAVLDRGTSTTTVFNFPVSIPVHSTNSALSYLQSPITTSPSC

**Q.** `Cc1ccc(C)n1-c1cccc(C(=O)O)c1` was tested. Which IC50 did it give?
**A.** 16.9 µM

**Q.** `O=C(Nc1ccc2nc(-c3ccco3)c(-c3ccco3)nc2c1)N1CCCCCC1` was tested. Which IC50 did it give?
**A.** 24.1 µM

**Q.** For `CCCCCC#CCC#CCC#CCC#CCCCC(=O)O`, which IC50 is on record?
**A.** 13.1 µM

**Q.** With `Cn1ncnc2c(=O)n(C)c(=O)nc1-2` as the molecule, how does the IC50 read?
**A.** > 50 µM

**Q.** Which IC50 does the source give for `[O-]/[N+](=C\c1ccncc1)c1ccccc1` here?
**A.** 46.6 µM

**Q.** Which IC50 does the source give for `O=C1C=Cc2ccccc2C1=O` [1,2-dihydronaphthalene-1,2-dione] here?
**A.** 22.5 µM

**Q.** How did the IC50 turn out when `Cc1nc2cc(-c3cccc(F)c3)nn2c(C)c1CCC(=O)N1CCC2(CC1)OCCO2` [1-(1,4-dioxa-8-azaspiro[4.5]decan-8-yl)-3-[2-(3-fluorophenyl)-5,7-dimethyl-6-pyrazolo[1,5-a]pyrimidinyl]-1-propanone] was run?
**A.** > 50 µM

**Q.** With `CCn1nc(-c2ccccc2)nc2c(=O)n(C)c(=O)nc1-2` [1-Ethyl-6-methyl-3-phenyl-1H-pyrimido[5,4-e][1,2,4]triazine-5,7-dione] as the molecule, how does the IC50 read?
**A.** > 50 µM

**Q.** With `Cc1cc(C)n2c(SCC(=O)N3CCN(S(=O)(=O)c4ccc(Cl)cc4)CC3)nnc2n1` [1-[4-(4-chlorophenyl)sulfonyl-1-piperazinyl]-2-[(5,7-dimethyl-[1,2,4]triazolo[4,3-a]pyrimidin-3-yl)thio]ethanone] as the molecule, how does the IC50 read?
**A.** 49.9 µM

**Q.** With `[O-]/[N+](=C\c1ccc(OC(F)F)cc1)c1ccccc1` [1-[4-(difluoromethoxy)phenyl]-N-phenylmethanimine oxide] as the molecule, how does the IC50 read?
**A.** > 50 µM

**Q.** `CCCCn1c(SCC(=O)c2ccc(OC)cc2OC)nc2cc(S(N)(=O)=O)ccc21` [1-butyl-2-[2-(2,4-dimethoxyphenyl)-2-oxidanylidene-ethyl]sulfanyl-benzimidazole-5-sulfonamide] was tested. Which IC50 did it give?
**A.** 42.1 µM

**Q.** Which IC50 does the source give for `CCn1nc(-c2cccs2)nc2c(=O)n(C)c(=O)nc1-2` [1-ethyl-6-methyl-3-thiophen-2-yl-pyrimido[5,4-e][1,2,4]triazine-5,7-dione] here?
**A.** > 50 µM

**Q.** Which IC50 does the source give for `O=C(Nc1ccccc1)c1ccc2nc(-c3ccco3)c(-c3ccco3)nc2c1` [2,3-di-2-furyl-N-phenyl-6-quinoxalinecarboxamide] here?
**A.** 32 µM

**Q.** Which IC50 does the source give for `CC(C)Cn1c(N)c(C(=O)COC(=O)c2cc(-c3ccco3)nc3ccccc23)c(=O)n(C)c1=O` [2-(2-furanyl)-4-quinolinecarboxylic acid [2-[4-amino-1-methyl-3-(2-methylpropyl)-2,6-dioxo-5-pyrimidinyl]-2-oxoethyl] ester] here?
**A.** 25.5 µM

**Q.** For `CCOc1ccc(-c2cc3nc(C4CCN(C(=O)OC(C)(C)C)CC4)c(C(=O)O)cn3n2)cc1` [2-(4-ethoxyphenyl)-5-[1-[(2-methylpropan-2-yl)oxy-oxomethyl]-4-piperidinyl]-6-pyrazolo[1,5-a]pyrimidinecarboxylic acid], which IC50 is on record?
**A.** 27.7 µM

**Q.** `COc1ccc(-c2cc3nc(C4CCN(C(=O)OC(C)(C)C)CC4)c(C(=O)O)cn3n2)cc1` [2-(4-methoxyphenyl)-5-[1-[(2-methylpropan-2-yl)oxy-oxomethyl]-4-piperidinyl]-6-pyrazolo[1,5-a]pyrimidinecarboxylic acid] was tested. Which IC50 did it give?
**A.** 36.3 µM

**Q.** How did the IC50 turn out when `Cc1cccc(NC(=O)c2cc(NC(=O)C3CCCCC3C(=O)O)ccc2N2CCCCC2)c1` (configuration not stated) [2-({[3-{[(3-methylphenyl)amino]carbonyl}-4-(1-piperidinyl)phenyl]amino}carbonyl)cyclohexanecarboxylic acid] was run?
**A.** > 50 µM

**Q.** Which IC50 does the source give for `Cc1ccc(/C=C/C2=Cc3c(sc(NC(=O)CSc4nnc(N)[nH]4)c3C#N)C(C)(C)C2)o1` [2-[(5-azanyl-1H-1,2,4-triazol-3-yl)sulfanyl]-N-[3-cyano-7,7-dimethyl-5-[(E)-2-(5-methylfuran-2-yl)ethenyl]-6H-1-benzothiophen-2-yl]ethanamide] here?
**A.** 19.8 µM

**Q.** `CCCCNC(=O)c1c(N)n(CCCOC)c2nc3ccccc3nc12` [2-amino-N-butyl-1-(3-methoxypropyl)-3-pyrrolo[3,2-b]quinoxalinecarboxamide] was tested. Which IC50 did it give?
**A.** > 50 µM

**Q.** With `N#Cc1c(N)sc(=S)c2c1CCN(Cc1ccccc1)C2` [3-Amino-7-benzyl-1-thioxo-5,6,7,8-tetrahydro-1H-thiopyrano[3,4-c]pyridine-4-carbonitrile] as the molecule, how does the IC50 read?
**A.** > 50 µM

**Q.** How did the IC50 turn out when `O=C1C=C(NCc2ccc(Cl)c(Cl)c2)CC1` [3-[(3,4-dichlorobenzyl)amino]cyclopent-2-en-1-one] was run?
**A.** > 50 µM

**Q.** For `CCCSc1nnc(NC(=O)c2sc3nc(-c4cccs4)ccc3c2N)s1` [3-amino-N-(5-propylsulfanyl-1,3,4-thiadiazol-2-yl)-6-thiophen-2-ylthieno[2,3-b]pyridine-2-carboxamide], which IC50 is on record?
**A.** 25.7 µM

**Q.** How did the IC50 turn out when `O=C1Nc2ccccc2SC(c2ccccc2)C1O` (configuration not stated) [3-hydroxy-2-phenyl-2,3-dihydro-1,5-benzothiazepin-4(5H)-one] was run?
**A.** 35.5 µM

**Q.** With `CC(C)(C)N1C(=O)Cc2c1nc(N)c1c(N)nc(N3CCCCC3CO)c(C#N)c21` (configuration not stated) [5,6-bis(azanyl)-3-tert-butyl-8-[2-(hydroxymethyl)piperidin-1-yl]-2-oxidanylidene-1H-pyrrolo[2,3-c][2,7]naphthyridine-9-carbonitrile] as the molecule, how does the IC50 read?
**A.** > 50 µM

**Q.** With `COc1cc(/C=C(/C#N)c2ccc(F)cc2)ccc1OCc1ccc(C(=O)O)o1` [5-({4-[2-cyano-2-(4-fluorophenyl)vinyl]-2-methoxyphenoxy}methyl)-2-furoic acid] as the molecule, how does the IC50 read?
**A.** > 50 µM

**Q.** With `COc1ccc(Br)cc1C=c1sc2nc(-c3ccco3)nn2c1=O` [5-[(5-bromanyl-2-methoxy-phenyl)methylidene]-2-(furan-2-yl)-[1,3]thiazolo[3,2-b][1,2,4]triazol-6-one] as the molecule, how does the IC50 read?
**A.** 17.2 µM

**Q.** How did the IC50 turn out when `CCOc1cc(/C=C(/C#N)c2ccc(F)cc2)ccc1OCc1ccc(C(=O)O)o1` [5-[[4-[(E)-2-cyano-2-(4-fluorophenyl)ethenyl]-2-ethoxyphenoxy]methyl]furan-2-carboxylic acid] was run?
**A.** 41.8 µM

**Q.** For `N#Cc1c(NC(=O)c2ccc(Br)o2)n(-c2ccccc2)c2nc3ccccc3nc12` [5-bromanyl-N-(3-cyano-1-phenyl-pyrrolo[3,2-b]quinoxalin-2-yl)furan-2-carboxamide], which IC50 is on record?
**A.** > 50 µM

**Q.** How did the IC50 turn out when `Cc1cccc(N2CCN(C(=O)Cc3c(C(=O)O)[nH]c4ccc(Cl)cc34)CC2)c1C` [5-chloranyl-3-[2-[4-(2,3-dimethylphenyl)piperazin-1-yl]-2-oxidanylidene-ethyl]-1H-indole-2-carboxylic acid] was run?
**A.** 46.8 µM

**Q.** With `CCCCCNC(=O)c1ccc2c(=O)[nH]c3c(C(=O)NCC4CCCO4)sc(=S)n3c2c1` (configuration not stated) [5-oxo-N3-(2-oxolanylmethyl)-N8-pentyl-1-sulfanylidene-4H-thiazolo[3,4-a]quinazoline-3,8-dicarboxamide] as the molecule, how does the IC50 read?
**A.** 36.7 µM

**Q.** For `Cc1nc2c(C(=O)NCCC3=CCCCC3)c[nH]n2c(=O)c1Cl` [6-chloro-N-(2-cyclohex-1-en-1-ylethyl)-7-hydroxy-5-methylpyrazolo[1,5-a]pyrimidine-3-carboxamide], which IC50 is on record?
**A.** 49.9 µM

**Q.** Which IC50 does the source give for `O=C(c1cccs1)c1no[n+]([O-])c1C(=O)c1cccs1` [(5-oxidanidyl-4-thiophen-2-ylcarbonyl-1,2,5-oxadiazol-5-ium-3-yl)-thiophen-2-yl-methanone] here?
**A.** 6.96 µM

**Q.** With `Nc1c(N2CCCC2)cc(Cl)c2nonc12` [(7-chloro-5-pyrrolidino-benzofurazan-4-yl)amine] as the molecule, how does the IC50 read?
**A.** > 50 µM

**Q.** `[O-]/[N+](=C/c1ccc(F)cc1)c1ccccc1` [(E)-(4-fluorobenzylidene)(phenyl)azane oxide] was tested. Which IC50 did it give?
**A.** > 50 µM

**Q.** How did the IC50 turn out when `CC1=C(/C=C/C(C)=C/C=C/C(C)=C/C(=O)O)C(C)(C)CCC1` [ALL-TRANS-RETINOIC ACID] was run?
**A.** 48.6 µM

**Q.** `CC(=O)[C@@H]1[C@@H]2C(=O)N(c3ccc(F)c(Cl)c3)C(=O)[C@@H]2C2c3ccccc3C=CN21` (some centres not stated) [MLS000040594] was tested. Which IC50 did it give?
**A.** > 50 µM

**Q.** How did the IC50 turn out when `COCCCn1c(N)c(C(=O)NCCC(C)C)c2nc3ccccc3nc21` [MLS000041744] was run?
**A.** > 50 µM

**Q.** Which IC50 does the source give for `CCn1c(SCC(=O)Nc2ccc3c(c2)c2ccccc2n3CC)nnc1-c1ccco1` [MLS000050867] here?
**A.** 21.1 µM

**Q.** Which IC50 does the source give for `O=C1C(=C2C(=O)c3ccccc3C2=O)Nc2ccccc21` [MLS000071738] here?
**A.** > 50 µM

**Q.** With `COc1ccc(-n2c(NC(=O)c3ccco3)c(C#N)c3nc4ccccc4nc32)cc1` [MLS000079925] as the molecule, how does the IC50 read?
**A.** > 50 µM

**Q.** How did the IC50 turn out when `COc1ccc(Cn2c(C)nc3c(c2=O)c2nc4ccccc4nc2n3Cc2ccco2)cc1` [MLS000079944] was run?
**A.** 22 µM

**Q.** How did the IC50 turn out when `Cc1ccc(-c2csc(NC(=O)c3ccno3)n2)cc1` [MLS000081820] was run?
**A.** 49.8 µM

**Q.** Which IC50 does the source give for `CC(C)Sc1nc2sc3c(c2c2nnc(SCC(=O)NCc4ccco4)n12)CCCC3` [MLS000082957] here?
**A.** 22.7 µM

**Q.** Which IC50 does the source give for `Nc1nc2c(s1)CCc1c-2cnn1-c1ccccc1` [MLS000085948] here?
**A.** > 50 µM

**Q.** How did the IC50 turn out when `Cc1cc(NC(=O)c2ccc(S(=O)(=O)N3CCCC3)cc2)nc2c1c(=O)oc1ccccc12` [MLS000091355] was run?
**A.** 26.1 µM

**Q.** For `FC(F)(F)c1ccc(N2CCOCC2)c(Nc2nc3ccccc3n3cnnc23)c1` [MLS000093276], which IC50 is on record?
**A.** > 50 µM

**Q.** How did the IC50 turn out when `COC(=O)c1ccccc1NC(=O)CN1C(=O)C2CCCN2c2ncc(Cl)cc21` (configuration not stated) [MLS000094302] was run?
**A.** > 50 µM

**Q.** With `CCc1ccc(NC(=O)CSc2nc3ccccc3c(=O)n2CCN2CCOCC2)cc1` [MLS000095236] as the molecule, how does the IC50 read?
**A.** > 50 µM

**Q.** How did the IC50 turn out when `Cc1c(N=c2c(=O)c3ccccc3c2=O)c(=O)n(-c2ccccc2)n1C` [MLS000105950] was run?
**A.** > 50 µM

**Q.** How did the IC50 turn out when `CCOc1ccc2noc3c2c1C(=O)c1ccccc1-3` [MLS000106837] was run?
**A.** 30.2 µM

**Q.** For `COc1ccc2noc3c2c1C(=O)c1ccccc1-3` [MLS000106874], which IC50 is on record?
**A.** 14.3 µM

**Q.** How did the IC50 turn out when `CCOC(=O)c1ccc2c(c1)C1C=CCC1C(C(=O)O)N2` (configuration not stated) [MLS-0025126.0001] was run?
**A.** 32.7 µM

**Q.** With `O=C(NC1(O)C(=O)c2ccccc2C1=O)c1ccccc1` [N-(2-hydroxy-1,3-dioxo-2-indenyl)benzamide] as the molecule, how does the IC50 read?
**A.** > 50 µM

**Q.** With `O=C(OC1CCCCC1)c1ccc2c(c1)C1C=CCC1C(C(=O)O)N2` (configuration not stated) [SMR000019385] as the molecule, how does the IC50 read?
**A.** 17.5 µM

**Q.** `O=C1c2ccccc2-c2onc3ccc(NCCCn4ccnc4)c1c23` [SMR000044769] was tested. Which IC50 did it give?
**A.** 35.2 µM

**Q.** `CCCCn1c(NC(=O)c2ccccc2)c(C#N)c2nc3ccccc3nc21` [SMR000060333] was tested. Which IC50 did it give?
**A.** 32.4 µM

**Q.** With `N#Cc1c(N2CCCC2)nc(N)c2c(N)nc(N3CCCC3)cc12` [SMR000061605] as the molecule, how does the IC50 read?
**A.** > 50 µM
